Data published in patent US20180354909A1, “SUBSTITUTED BENZIMIDAZOLIUM, PYRIDO-IMIDAZOLIUM, OR PYRAZINO-IMIDAZOLIUM COMPOUNDS AS CHEMOTHERAPEUTICS” (The Board of Regents of the University of Texas System, priority 2015, published 2018).

Test system: Mut6
Assay: Cytotox testing (CellTiter-Glo ATP assay) in Mut6 cells
Format: cell-based, mouse
Conditions: Mus musculus, 96 h, Mut6 cells, 4 days, CellTiter-Glo; read-out: Activity in Mut6 [EC50]
Procedure: Mut6 tumor cells were cultured in DMEM/F12 media supplemented by EGF (10 ng/mL), basic FGF (10 ng/mL), heparin (4 ug/mL), glucose (total 21 mM), NaHCO3 (113 μg/mL), Hepes (119 μg/mL), glutamine (2 mM), sodium pyruvate (1 mM), N2 supplement (ThermoFisher Gibco 17502-048, 100×, at 100-fold dilution), B27 supplement (ThermoFisher Gibco 12587-010, 50×, at 100-fold dilution), and penicillin/streptomycin (ThermoFisher, final 1%). Cells were maintained in Ultra-low attachment plate (Corning) as sphere-forming cells. For ATP assays and protein/RNA isolation, cells were plated into 96-well plates or 6-well plated that were coated with poly-lysine (Sigma P6407, 10 μg/mL in PBS, 4 hr at 37° C.) and laminin (ThermoFisher 23017015, ˜5 mg/L in PBS, overnight at 37° C.). MEFs and Astrocytes were cultured in DMEM supplemented with 10% FBS and 1% Penicillin/Streptomycin.
2,000 cells were plated into each well of 96-well plates. About 3 hours later, cells were treated by 12M11, at 800-fold dilution (4 mM stock was diluted into 5 μM final concentration). […] CellTiter-Glo assay (Promega) was performed according to manufacturer's instructions, by adding 20 μL of reagent into each well. Luminescence signal was detected by the PolarStar plate reader (BMG Labtech). Experiments were performed in quadruplicate, and results are presented with mean average −/+ standard deviation. EC505 were calculated by GraphPad Prism6 software.
The compounds described herein were tested using a cell-based cytotoxicity assay against neuronal stem cells in Mut6, which is a mouse glioblastoma model cell line.

SMILES	EC50 [nM]
CCc1n(CC(=O)O[C@H]2C[C@@H](C)CC[C@@H]2C(C)C)c2ccccc2[n+]1C	100 to 1000
CCc1n(CC(=O)OC(C)(C)C)c2ccccc2[n+]1C	> 5000
CC(C)[C@@H]1CC[C@@H](C)CC1OC(=O)Cn1c(-c2ccc(OC(=O)CCCCC3SC[C@H]4NC(=O)N[C@@H]34)cc2)[n+](C)c2ccccc21 (stereo partly shown)	1000 to 5000
C#CCOc1ccc(-c2n(CC(=O)OC3C[C@H](C)CC[C@H]3C(C)C)c3ccccc3[n+]2C)cc1N=[N+]=[N-] (stereo partly shown)	100 to 1000
C#CCN(CC(=O)Oc1ccc(-c2n(CC(=O)OC3C[C@H](C)CC[C@H]3C(C)C)c3ccccc3[n+]2C)cc1)Cc1ccc(C2(C(F)(F)F)N=N2)cc1 (stereo partly shown)	1000 to 5000
CCc1n(CC(=O)OC2C[C@H](C)CC[C@H]2C(C)C)c2ccccc2[n+]1C (stereo partly shown)	< 100
CCc1n([C@H](C)C(=O)OC2C[C@H](C)CC[C@H]2C(C)C)c2ccccc2[n+]1C (stereo partly shown)	< 100
CCc1n([C@@H](C)C(=O)OC2C[C@H](C)CC[C@H]2C(C)C)c2ccccc2[n+]1C (stereo partly shown)	< 100
CCc1n([C@H](C)C(=O)OC2C[C@@H](C)CC[C@@H]2C(C)C)c2ccccc2[n+]1C (stereo partly shown)	< 100
CCc1n([C@@H](C(=O)OC2C[C@H](C)CC[C@H]2C(C)C)C(C)(C)C)c2ccccc2[n+]1C (stereo partly shown)	100 to 1000
CCc1n([C@@H](C(=O)OC2C[C@H](C)CC[C@H]2C(C)C)C2CC2)c2ccccc2[n+]1C (stereo partly shown)	< 100
CCc1n([C@@H](C(=O)OC2C[C@H](C)CC[C@H]2C(C)C)C2CCCC2)c2ccccc2[n+]1C (stereo partly shown)	< 100
CCc1n([C@H](Cc2ccccc2)C(=O)OC2C[C@H](C)CC[C@H]2C(C)C)c2ccccc2[n+]1C (stereo partly shown)	100 to 1000
CCc1n([C@H](Cc2ccc(C)cc2)C(=O)OC2C[C@H](C)CC[C@H]2C(C)C)c2ccccc2[n+]1C (stereo partly shown)	< 100
CCc1n([C@H](Cc2ccc(O)cc2)C(=O)OC2C[C@H](C)CC[C@H]2C(C)C)c2ccccc2[n+]1C (stereo partly shown)	1000 to 5000
COc1ccc(-c2n([C@H](C)C(=O)OC3C[C@H](C)CC[C@H]3C(C)C)c3ccccc3[n+]2C)cc1 (stereo partly shown)	< 100
CC(C)[C@@H]1CC[C@@H](C)CC1OC(=O)[C@@H](C)n1c(-c2ccc(N(C)C)cc2)[n+](C)c2ccccc21 (stereo partly shown)	< 100
CC(C)[C@@H]1CC[C@@H](C)CC1OC(=O)[C@@H](C)n1c(-c2ccc(C(F)(F)F)cc2)[n+](C)c2ccccc21 (stereo partly shown)	100 to 1000
COc1ccc(-c2n([C@@H](C(=O)OC3C[C@H](C)CC[C@H]3C(C)C)C3CC3)c3ccccc3[n+]2C)cc1 (stereo partly shown)	< 100
CC(C)[C@@H]1CC[C@@H](C)CC1OC(=O)[C@@H](C1CC1)n1c(-c2ccc(N(C)C)cc2)[n+](C)c2ccccc21 (stereo partly shown)	< 100
CC(C)[C@@H]1CC[C@@H](C)CC1OC(=O)[C@@H](C1CC1)n1c(-c2ccc(C(F)(F)F)cc2)[n+](C)c2ccccc21 (stereo partly shown)	100 to 1000
CCc1n(CC(=O)OC2C[C@H](C)CC[C@H]2C(C)C)c2ccc(Br)cc2[n+]1C (stereo partly shown)	100 to 1000

SMILES	EC50 [nM]
CCc1n(CC(=O)OC2C[C@H](C)CC[C@H]2C(C)C)c2cc(Br)ccc2[n+]1C (stereo partly shown)	100 to 1000
CCc1n(CC(=O)OC2C[C@H](C)CC[C@H]2C(C)C)c2ccc(Cl)cc2[n+]1C (stereo partly shown)	100 to 1000
CCc1n(CC(=O)OC2C[C@H](C)CC[C@H]2C(C)C)c2cc(Cl)ccc2[n+]1C (stereo partly shown)	100 to 1000
CCc1n(CC(=O)OC2C[C@H](C)CC[C@H]2C(C)C)c2ccc(F)cc2[n+]1C (stereo partly shown)	100 to 1000
CCc1n(CC(=O)OC2C[C@H](C)CC[C@H]2C(C)C)c2cc(F)ccc2[n+]1C (stereo partly shown)	< 100
CCc1n(CC(=O)OC2C[C@H](C)CC[C@H]2C(C)C)c2ccc(C(F)(F)F)cc2[n+]1C (stereo partly shown)	1000 to 5000
CCc1n(CC(=O)OC2C[C@H](C)CC[C@H]2C(C)C)c2cc(C(F)(F)F)ccc2[n+]1C (stereo partly shown)	1000 to 5000
CCc1n(CC(=O)OC2C[C@H](C)CC[C@H]2C(C)C)c2ccc(C#N)cc2[n+]1C (stereo partly shown)	1000 to 5000
CCc1n(CC(=O)OC2C[C@H](C)CC[C@H]2C(C)C)c2cc(C#N)ccc2[n+]1C (stereo partly shown)	1000 to 5000
CCc1n(CC(=O)OC2C[C@H](C)CC[C@H]2C(C)C)c2ccc([N+](=O)[O-])cc2[n+]1C (stereo partly shown)	1000 to 5000
CCc1n(CC(=O)OC2C[C@H](C)CC[C@H]2C(C)C)c2cc([N+](=O)[O-])ccc2[n+]1C (stereo partly shown)	1000 to 5000
CCN(CC)c1ccc(-c2n([C@H](C)C(=O)OC3C[C@H](C)CC[C@H]3C(C)C)c3ccccc3[n+]2C)cc1 (stereo partly shown)	< 100
CCN(CC)c1ccc(-c2n([C@@H](C(=O)OC3C[C@H](C)CC[C@H]3C(C)C)C3CC3)c3ccccc3[n+]2C)cc1 (stereo partly shown)	< 100
CC(C)[C@@H]1CC[C@@H](C)CC1OC(=O)[C@@H](C)n1c(-c2ccc(N(C)C)c(C(F)(F)F)c2)[n+](C)c2ccccc21 (stereo partly shown)	< 100
CC(C)[C@@H]1CC[C@@H](C)CC1OC(=O)[C@@H](C1CC1)n1c(-c2ccc(N(C)C)c(C(F)(F)F)c2)[n+](C)c2ccccc21 (stereo partly shown)	100 to 1000
Cc1cc(-c2n([C@H](C)C(=O)OC3C[C@H](C)CC[C@H]3C(C)C)c3ccccc3[n+]2C)ccc1N(C)C (stereo partly shown)	< 100
Cc1cc(-c2n([C@@H](C(=O)OC3C[C@H](C)CC[C@H]3C(C)C)C3CC3)c3ccccc3[n+]2C)ccc1N(C)C (stereo partly shown)	< 100
CC(C)[C@@H]1CC[C@@H](C)CC1OC(=O)[C@@H](C)n1c(-c2ccc(N(C3CC3)C3CC3)cc2)[n+](C)c2ccccc21 (stereo partly shown)	< 100
CCCCN(CCCC)c1ccc(-c2n([C@H](C)C(=O)OC3C[C@H](C)CC[C@H]3C(C)C)c3ccccc3[n+]2C)cc1 (stereo partly shown)	< 100
CC(C)[C@@H]1CC[C@@H](C)CC1OC(=O)[C@@H](C1CC1)n1c(-c2ccc(N(C3CC3)C3CC3)cc2)[n+](C)c2ccccc21 (stereo partly shown)	< 100
CCCCN(CCCC)c1ccc(-c2n([C@@H](C(=O)OC3C[C@H](C)CC[C@H]3C(C)C)C3CC3)c3ccccc3[n+]2C)cc1 (stereo partly shown)	< 100
CCc1n(CC(=O)OC2C[C@H](C)CC[C@H]2C(C)C)c2ccncc2[n+]1C (stereo partly shown)	100 to 1000

SMILES	EC50 [nM]
CCc1n(CC(=O)OC2C[C@H](C)CC[C@H]2C(C)C)c2ncccc2[n+]1C (stereo partly shown)	100 to 1000
CCc1n(CC(=O)OC2C[C@H](C)CC[C@H]2C(C)C)c2cccnc2[n+]1C (stereo partly shown)	100 to 1000
CCc1n(CC(=O)OC2C[C@H](C)CC[C@H]2C(C)C)c2cc(OC)ccc2[n+]1C (stereo partly shown)	< 100
CCc1n(CC(=O)OC2C[C@H](C)CC[C@H]2C(C)C)c2ccc(OC)cc2[n+]1C (stereo partly shown)	< 100
CCc1n(CC(=O)OC2C[C@H](C)CC[C@H]2C(C)C)c2cc(C)ccc2[n+]1C (stereo partly shown)	< 100
CC[n+]1c(-c2ccc(N(C)C)cc2)n(CC(=O)OC2C[C@H](C)CC[C@H]2C(C)C)c2ccccc21 (stereo partly shown)	< 100
C#CC[n+]1c(-c2ccc(N(C)C)cc2)n(CC(=O)OC2C[C@H](C)CC[C@H]2C(C)C)c2ccccc21 (stereo partly shown)	< 100
C=CC[n+]1c(-c2ccc(N(C)C)cc2)n(CC(=O)OC2C[C@H](C)CC[C@H]2C(C)C)c2ccccc21 (stereo partly shown)	< 100
CC(C)[C@@H]1CC[C@@H](C)CC1OC(=O)Cn1c(-c2ccc(N(C)C)cc2)[n+](Cc2ccccc2)c2ccccc21 (stereo partly shown)	< 100
CC(C)[C@@H]1CC[C@@H](C)CC1OC(=O)Cn1c(-c2ccc(N(C)C)cc2)[n+](CC2CC2)c2ccccc21 (stereo partly shown)	< 100
CC(C)[C@@H]1CC[C@@H](C)CC1OC(=O)Cn1c(-c2ccc(Cl)cc2)[n+](C)c2ccccc21 (stereo partly shown)	100 to 1000
CC(C)[C@@H]1CC[C@@H](C)CC1OC(=O)Cn1c(-c2ccc(Cl)c(Cl)c2)[n+](C)c2ccccc21 (stereo partly shown)	100 to 1000
CC(C)[C@@H]1CC[C@@H](C)CC1OC(=O)Cn1c(-c2ccc(F)cc2)[n+](C)c2ccccc21 (stereo partly shown)	100 to 1000
CC(C)[C@@H]1CC[C@@H](C)CC1OC(=O)Cn1c(-c2ccc(C(F)(F)F)cc2)[n+](C)c2ccccc21 (stereo partly shown)	100 to 1000
CC(C)[C@@H]1CC[C@@H](C)CC1OC(=O)Cn1c(-c2ccc(Br)cc2)[n+](C)c2ccccc21 (stereo partly shown)	100 to 1000
CC(C)[C@@H]1CC[C@@H](C)CC1OC(=O)Cn1c(-c2cccc(Cl)c2)[n+](C)c2ccccc21 (stereo partly shown)	100 to 1000
CC(C)[C@@H]1CC[C@@H](C)CC1OC(=O)Cn1c(-c2ccc(Cl)c(C(F)(F)F)c2)[n+](C)c2ccccc21 (stereo partly shown)	100 to 1000
CC(C)[C@@H]1CC[C@@H](C)CC1OC(=O)Cn1c(-c2ccc(C(C)(C)C)cc2)[n+](C)c2ccccc21 (stereo partly shown)	< 100
CC(C)[C@@H]1CC[C@@H](C)CC1OC(=O)Cn1c(-c2ccc(OC(C)(C)C)cc2)[n+](C)c2ccccc21 (stereo partly shown)	< 100
CCc1n(CC(=O)OC23CC4CC(CC(C4)C2)C3)c2ccccc2[n+]1C	1000 to 5000
